Results: patent publication US20230096602A1, “TETRAHYDROCYCLOPENTA[B]INDOLE COMPOUNDS FOR TREATMENT OF RENAL DISEASE” (Eirgen Pharma Ltd., priority 2020, published 2023)

Columns and labels:
[1] = system: orchidectomized (ORX) rats; experiment: Testosterone induced prostate and seminal vesicle growth in delayed ORX rat model; assay type: in vivo; settings: for seminal vesicle wet weights Abs(Dif)-LSD / prostate weights Abs(Dif)-LSD: Dunnett
Source text: (§1) Orchidectomized (ORX) and sham-operated Wistar male rats were used (orchidectomized at 8 weeks of age and allowed to waste for 4 weeks). […] Rats were randomized and placed into treatment groups (n=6) based on body weight. Route of administration for all groups except testosterone enanthate (TE was given sub-cutaneously) was oral. At the end of 2 weeks of daily rats were euthanized, weighed & tissue harvested. Levator ani, prostates, and seminal vesicles were collected from each animal. Results are plotted as means±SE.

LnCAP cells = experiment: LnCAP gene expression; assay type: cell-based, human; settings: CLUSTERIN
[2] = system: orchidectomized (ORX) rats; experiment: Bone effects in osteopenic ORX rat model; settings: in vivo
[3] = Margin of safety (AUC), dog; assay type: in vivo
healthy subjects [4] = experiment: Study GPBC multiple-dose 28 days; assay type: in vivo, human; settings: 1 mg to 75 mg daily dose for 28 days
[5] = system: patients with ED who had an incomplete response to tadalafil; experiment: Study GPEC phase 2, 12 weeks; assay type: in vivo, human; settings: for Change in Fat Mass (%) (week 12) / Change in Lean Body Mass (%) (week 12): 5 mg
Source text: The Phase 2 Study for ED also included exploratory measures for lower extremity muscle strength and power, LBM and fat mass.

healthy subjects [6] = settings: healthy volunteers, any time point or dose; data of WO 2016040234; cited from earlier work
[7] = Margin of safety (AUC), cat as printed; assay type: in vivo; settings: cat (so in the source)
clinical study subjects = experiment: Clinical safety assessment across studies; assay type: in vivo, human; settings: phase 2 study
healthy subjects [8] = experiment: Study GPBA QTcF concentration-response analysis; assay type: in vivo, human; settings: concentrations found with doses of 250 mg or greater
Description: At TT701 concentrations found with doses of 250 mg or greater, the mean QTcF prolongation was greater than 10 msec. The risk for clinically significant QT prolongation at doses <250 mg can be excluded.

[9] = Human PK, single and repeated doses; assay type: in vivo
Source text: The human pharmacokinetics (PK) of OPK-88004 was investigated following single and repeated doses. Following tmax, OPK-88004 concentrations appear to decline in a biexponential fashion characterized by a short distribution phase and a long terminal phase. Exposure appears to increase approximately dose proportionally in the clinical dosing range. Steady state was achieved within 28 days of dosing. […] These therapeutic benefits of more controlled exposure may result in improved LBM and physical/muscle strength preservation, physical function improvement and muscle wasting prevention. OPK-88004 bioexponential PK profile is important for the optimization of side effect benefit/risk ratio in special populations including dialysis patients.

[10] = system: male subjects with LUTS secondary to BPH; experiment: Study SAR-202 phase 2, 16 weeks; assay type: in vivo, human
[11] = system: orchidectomized (ORX) rats; experiment: Levator ani muscle in delayed ORX rat model; assay type: in vivo; settings: for levator ani W/BW Mean: delayed ORX rat
Source text: Results are plotted as means±SE.
Following the androgen deficiency in the ORX model, the Levator ani- and bulbocavernous muscle weights decreased in size.

ER, GR, PR MR = experiment: Binding to other nuclear hormone receptors; settings: selectivity
dog prostate = experiment: Dog toxicology: prostate weight and atrophy; assay type: in vivo
[12] = system: patients with androgen deficiency; experiment: Clinical studies in patients with androgen deficiency; assay type: in vivo, human; settings: any dose level (up to 75 mg doses)
Source text: The exact effect of this decrease in testosterone levels on androgen related anabolic and prostate effects is not known, but may be dependent on the base levels of testosterone.

rat uterus = experiment: Rat uterine risk; assay type: in vivo
[13] = system: orchidectomized (ORX) rats; experiment: Prostate and seminal vesicle weight in ORX rat model
Source text: as §1

[14] = baseline testosterone <340 ng/dL
[15] = baseline testosterone ≥340 ng/dL
[16] = ORX + TE, 1 mg/kg/d + Example 1, 3 mg/kg/d vs ORX + TE
[17] = ORX + TE, 1 mg/kg/d + Example 1, 10 mg/kg/d vs ORX + TE
[18] = ORX + TE, 1 mg/kg/d + Example 1, 30 mg/kg/d vs ORX + TE

CCCCCCC(=O)O[C@H]1CC[C@H]2[C@@H]3CCC4=CC(=O)CC[C@]4(C)[C@H]3CC[C@]12C [Testosterone Enanthate, reference compound]
prostate weight and seminal vesical weight ([1]; orchidectomized rats, 1 mg/k/d alone, 2 weeks): increase

CC(C)OC(=O)N[C@H]1Cc2c(n(Cc3ccccn3)c3ccc(C#N)cc23)C1 [compound of Formula II, (S)-(7-cyano-4-pyridin-2-ylmethyl-1,2,3,4-tetrahydro-cyclopenta[b]indol-2-yl)-carbamic acid isopropyl ester]
EC50 (LnCAP cells): > 100 nM | Bone Eff (BM) [2]: 2 mpk | MOS (AUC) [3]: 28 X | PSA test, effect on the prostate (healthy subjects [4]): neutral to negative effect | Change in Fat Mass (%) (week 12) [5, 14]: −1.85% | Change in Lean Body Mass (%) (week 12) [5, 14]: 1.60% | Change in Fat Mass (%) (week 12) [5, 15]: −0.95% | Change in Lean Body Mass (%) (week 12) [5, 15]: 0.88% | Hematocrit ([5]; 12 weeks (FIG. 11)): no change | seminal vesicle wet weights Abs(Dif)-LSD ([1]; ORX + Example 1, 10 mg/kg/d (no TE) vs ORX + TE): 1.411 | prostate weights Abs(Dif)-LSD [1, 16]: −0.11 | seminal vesicle wet weights Abs(Dif)-LSD [1, 16]: −0.34 | prostate weights Abs(Dif)-LSD [1, 17]: 0.036 | seminal vesicle wet weights Abs(Dif)-LSD [1, 17]: 0.078 | prostate weights Abs(Dif)-LSD [1, 18]: 0.025 | seminal vesicle wet weights Abs(Dif)-LSD [1, 18]: 0.536 | prostate weight and seminal vesical weights normalized to body weight ([1]; TE 1 mg/kg/d + 3, 10 and 30 mg/kg/d, 2 weeks, compared to TE alone): decreasing | prostate specific antigen (PSA) levels, changes from baseline vs placebo (healthy subjects [6]): no significant changes | MOS (AUC) [7]: 71 X | transient abnormal AST or ALT level (clinical study subjects; one subject): > 3 ×ULN | transient abnormal AST or ALT level (clinical study subjects; two subjects): > 2 ×ULN | mean QTcF prolongation (healthy subjects [8]): greater than 10 msec | Accumulation with multiple dosing ([9]; in vivo): up to 2.5 fold | time to steady state ([9]; repeated dosing): ≤ 28 days | Change in Fat mass (kg) (week 16) ([10]; 15 mg, 16 weeks): -1.47 kg | Change in Fat mass (kg) (week 16) ([10]; 25 mg, 16 weeks): -1.49 kg | Change in Lean Body Mass (kg) (week 16) ([10]; 25 mg, 16 weeks, listed as OPK-88008): 1.96 kg | Change in Prostate Specific Antigen (week 16 to baseline) ([10]; 25 mg, listed as OPK-88008): −15.44 (p = 0.006) | levator ani W/BW Mean ([11]; 8 weeks, dose 1): 0.2749 mg/g | levator ani W/BW Mean ([11]; 8 weeks, dose 3): 0.2575 mg/g | levator ani W/BW Mean ([11]; 8 weeks, dose 10): 0.3237 mg/g | levator ani W/BW Mean ([11]; 8 weeks, dose 20): 0.325 mg/g | Muscle LA ED mg/kg ([11]; rat): 3 mpk | binding affinity for hAR compared to other nuclear hormone receptors (ER, GR, PR MR): > 500 fold | decreases of prostate weight (dog prostate; dogs, by 3 months (so in the source)): 60-75% | progressive decrease in prostate size (dog prostate; normal dogs, six-month treatment period): 60% | PSA [12]: No increases | Rat uterine risk (rat uterus): 20 mpk | prostate or seminal vesical weights ([13]; delayed ORX rats, 2 or 8 weeks, increasing doses up to 20-30 mg/kg): no effect | changes in the prostate ([13]; orchidectomized rats, 30 mg/kg, highest dose examined): did not induce changes | Rat SV/Prost risk mgs/kg ([13]; rat): >30 mpk

B1: PTH: PTH 10 comparator group in the delayed ORX rat model, Table 7 (peptide, UniProt P01270 32-115, looked up)
Parathyroid hormone: SVSEIQLMHNLGKHLNSMERVEWLRKKLQDVHNFVALGAPLAPRDAGSQRPRKKEDNVLVESHEKSLGEADKADVNVLTKAKSQ
modifications: Parathyroid hormone
levator ani W/BW Mean ([11]; PTH 10 (head: ug/kg/d)): 0.1665 mg/g
